ChEMBL document CHEMBL1201862, “PubChem BioAssay data set” (2004)
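A five-concentration, 48-hour dose response in 96-well plates underlies each endpoint, interpolated linearly between surrounding concentrations. Abbreviation: GI50, concentration required for 50% inhibition of growth.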 Active and inactive are the calls of the source. Cut-off read from the data, not from the text of the source: active = GI50 up to about 1.1 µM and inactive = higher.

Key:
Assay in all cases: NCI tumour cell line growth inhibition, 48 h
UO-31 = tested on: UO-31
SF-539 = tested on: SF-539
DMS-273 = tested on: DMS-273
HL-60 = tested on: HL-60
SNB-75 = tested on: SNB-75
CCRF-CEM = tested on: CCRF-CEM
COLO 205 = tested on: COLO 205
HOP-92 = tested on: HOP-92
RXF 631 = tested on: RXF 631
SK-OV-3 = tested on: SK-OV-3
K562 = tested on: K562
NCI-H460 = tested on: NCI-H460
CAKI-1 = tested on: CAKI-1
IGROV-1 = tested on: IGROV-1
Malme-3M = tested on: Malme-3M
EKVX = tested on: EKVX
NCI-H226 = tested on: NCI-H226
786-0 = tested on: 786-0
SR = tested on: SR
SNB-78 = tested on: SNB-78
NCI-H522 = tested on: NCI-H522
TK-10 = tested on: TK-10
A549 = tested on: A549
HOP-62 = tested on: HOP-62
OVCAR-4 = tested on: OVCAR-4
UACC-62 = tested on: UACC-62
SF-268 = tested on: SF-268
UACC-257 = tested on: UACC-257
SK-MEL-5 = tested on: SK-MEL-5
HCT-15 = tested on: HCT-15
ACHN = tested on: ACHN
M14 = tested on: M14
SF-295 = tested on: SF-295
HCC 2998 = tested on: HCC 2998
SK-MEL-2 = tested on: SK-MEL-2
NCI-H23 = tested on: NCI-H23
A498 = tested on: A498
MOLT-4 = tested on: MOLT-4
RXF 393 = tested on: RXF 393
SNB-19 = tested on: SNB-19
LXFL 529 = tested on: LXFL 529
SW-620 = tested on: SW-620
M19-MEL = tested on: M19-MEL
DMS-114 = tested on: DMS-114
OVCAR-8 = tested on: OVCAR-8
SK-MEL-28 = tested on: SK-MEL-28
XF498 = tested on: XF498
HOP-18 = tested on: HOP-18
KM12 = tested on: KM12
KM-20L2 = tested on: KM-20L2
SN12C = tested on: SN12C
OVCAR-3 = tested on: OVCAR-3
HT-29 = tested on: HT-29
U-251 = tested on: U-251
HCT-116 = tested on: HCT-116
DLD-1 = tested on: DLD-1
OVCAR-5 = tested on: OVCAR-5

Structure (SMILES): CSc1s[s+]c(SC)c1[O-]
- GI50 (UO-31): > 100 µM (inactive)
- GI50 (SF-539): 20.6 µM (inactive)
- GI50 (DMS-273): 27.4 µM (inactive)
- GI50 (HL-60): 17.4 µM (inactive)
- GI50 (SNB-75): 38.6 µM (inactive)
- GI50 (CCRF-CEM): 8.77 µM (inactive)
- GI50 (COLO 205): 27.2 µM (inactive)
- GI50 (HOP-92): 33 µM (inactive)
- GI50 (RXF 631): 19.2 µM (inactive)
- GI50 (SK-OV-3): > 100 µM (inactive)
- GI50 (K562): 3.94 µM (inactive)
- GI50 (NCI-H460): 29.3 µM (inactive)
- GI50 (CAKI-1): 20.7 µM (inactive)
- GI50 (IGROV-1): 83.6 µM (inactive)
- GI50 (Malme-3M): 16.6 µM (inactive)
- GI50 (EKVX): 75.7 µM (inactive)
- GI50 (NCI-H226): > 100 µM (inactive)
- GI50 (786-0): 16.5 µM (inactive)
- GI50 (SR): 9.95 µM (inactive)
- GI50 (SNB-78): 55.1 µM (inactive)
- GI50 (NCI-H522): 15.7 µM (inactive)
- GI50 (TK-10): > 100 µM (inactive)
- GI50 (A549): > 100 µM (inactive)
- GI50 (HOP-62): > 100 µM (inactive)
- GI50 (OVCAR-4): 51.2 µM (inactive)
- GI50 (UACC-62): 14.4 µM (inactive)
- GI50 (SF-268): 20.9 µM (inactive)
- GI50 (UACC-257): 17.7 µM (inactive)
- GI50 (SK-MEL-5): 90.6 µM (inactive)
- GI50 (HCT-15): 32.9 µM
- GI50 (ACHN): 38.4 µM (inactive)
- GI50 (M14): 17.5 µM (inactive)
- GI50 (SF-295): 47.9 µM (inactive)
- GI50 (HCC 2998): > 100 µM (inactive)
- GI50 (SK-MEL-2): 32.3 µM (inactive)
- GI50 (NCI-H23): 20.5 µM (inactive)
- GI50 (A498): > 100 µM (inactive)
- GI50 (MOLT-4): 13.3 µM (inactive)
- GI50 (RXF 393): 21.2 µM (inactive)
- GI50 (SNB-19): > 100 µM (inactive)
- GI50 (LXFL 529): 18.7 µM (inactive)
- GI50 (SW-620): 17.8 µM (inactive)
- GI50 (M19-MEL): 15.5 µM (inactive)
- GI50 (DMS-114): 17.5 µM (inactive)
- GI50 (OVCAR-8): 20.1 µM (inactive)
- GI50 (SK-MEL-28): 17.1 µM (inactive)
- GI50 (XF498): 45.8 µM (inactive)
- GI50 (HOP-18): > 100 µM (inactive)
- GI50 (KM12): 62.4 µM (inactive)
- GI50 (KM-20L2): 80.7 µM (inactive)
- GI50 (SN12C): 22.1 µM (inactive)
- GI50 (OVCAR-3): 26.5 µM (inactive)
- GI50 (HT-29): 24.7 µM (inactive)
- GI50 (U-251): 26.7 µM (inactive)
- GI50 (HCT-116): 17.1 µM (inactive)
- GI50 (DLD-1): 16.5 µM (inactive)
- GI50 (OVCAR-5): > 100 µM (inactive)
